From patent publication EP0908457B1, “3-(1,2-benzisothiazol- and isoxazol-5-Y1)-2,4(1H,3H)-pyrimidinedione or thione and 3-(1,2-benzisothiazol- and isoxazol-5-y1)-4(3H)-pyrimidinone or thione herbicidal agents” (BASF AKTIENGESELLSCHAFT, priority 1997, dated 1999)

Key:
[1] = system: Echinochloa oryzoides (Ard.) Fritsch.; experiment: Preemergence weed control under flooded paddy conditions, ECHORC (Watergrass (Calif.)); assay type: in vivo; conditions: flooded paddy; for ECHORC: herbicidal effect rating 0-9, three to four weeks after treatment; for herbicidal effect rating, ECHORC / ECHORC herbicidal rating: rated three to four weeks after treatment; on herbicidal effect rating, ECHORC: meaning of each grade not given here
Cyperus iria = experiment: Preemergence weed control under flooded paddy conditions, CYPIR (Rice Flatsedge); assay type: in vivo; conditions: flooded paddy; for CYPIR: herbicidal effect rating 0-9, three to four weeks after treatment; for herbicidal effect rating, CYPIR / CYPIR herbicidal rating: rated three to four weeks after treatment; on herbicidal effect rating, CYPIR: meaning of each grade not given here
[2] = system: Cyperus serotinus, Rottb.; experiment: Preemergence weed control under flooded paddy conditions, CYPSE (Flatsedge); assay type: in vivo; conditions: for CYPSE: herbicidal effect rating 0-9, three to four weeks after treatment; for herbicidal effect rating, CYPSE / CYPSE herbicidal rating: rated three to four weeks after treatment; on herbicidal effect rating, CYPSE: meaning of each grade not given here
[3] = system: Monochoria vaginalis, Presl.; experiment: Preemergence weed control under flooded paddy conditions, MOOVA (Monochoria); assay type: in vivo; conditions: flooded paddy; for MOOVA: herbicidal effect rating 0-9, three to four weeks after treatment; for herbicidal effect rating, MOOVA / MOOVA herbicidal rating: rated three to four weeks after treatment; on herbicidal effect rating, MOOVA: meaning of each grade not given here
Sagittaria pygmaea, L. = experiment: Preemergence weed control under flooded paddy conditions, SAGPY (Arrowhead (Pygmaea)); assay type: in vivo; conditions: flooded paddy; for SAGPY: herbicidal effect rating 0-9, three to four weeks after treatment; for herbicidal effect rating, SAGPY / SAGPY herbicidal rating: rated three to four weeks after treatment; on herbicidal effect rating, SAGPY: meaning of each grade not given here
[4] = system: Oryza sativa, (L.) Tebonnet; experiment: Rice tolerance to post-transplant applications under flooded paddy conditions (Example 187), ORYSAT (Rice, Tebonnet); conditions: for ORYSAT: herbicidal effect rating 0-9, three to four weeks after treatment; for herbicidal effect rating ORYSAT / ORYSAT herbicidal rating (rice tolerance): rated three to four weeks after treatment; on herbicidal effect rating ORYSAT: meaning of each grade not given here
[5] = 0.0320 kg/ha, preemergence weeds
[6] = 0.0620 kg/ha, preemergence weeds
[7] = 0.1250 kg/ha, preemergence weeds
[8] = 0.2500 kg/ha, preemergence weeds
[9] = Rate 0.0320 kg/ha, preemergence
[10] = Rate 0.0620 kg/ha, preemergence
[11] = Rate 0.1250 kg/ha, preemergence
[12] = Rate 0.2500 kg/ha, preemergence
[13] = Rate 0.5000 kg/ha, preemergence
[14] = Rate 0.0320 kg/ha, preemergence weeds
[15] = Rate 0.0620 kg/ha, preemergence weeds
[16] = Rate 0.1250 kg/ha, preemergence weeds
[17] = Rate 0.2500 kg/ha, preemergence weeds

Cc1ccsc1C=C(C#N)c1nsc2ccc(-n3c(=O)cc(C(F)(F)F)n(C)c3=O)cc12 [Example 457, 1,2-Benzisothiazole-3-acetonitrile, 5-[3,6-dihydro-3-methyl-2,6-dioxo-4-(trifluoromethyl)-1(2H)-pyrimidinyl]-alpha-(3-methyl-2-thenylidene)-]
0.0: CYPIR (Cyperus iria; [5]) | CYPSE [2, 5] | CYPSE [2, 6] | CYPSE [2, 7] | CYPSE [2, 8] | SAGPY (Sagittaria pygmaea, L.; [5]) | SAGPY (Sagittaria pygmaea, L.; [6]) | ORYSAT ([4]; 0.0320 kg/ha) | ORYSAT ([4]; 0.0620 kg/ha) | ORYSAT ([4]; 0.1250 kg/ha)
2.0: MOOVA [3, 5]
3.0: CYPIR (Cyperus iria; [6]) | SAGPY (Sagittaria pygmaea, L.; [7]) | SAGPY (Sagittaria pygmaea, L.; [8]) | ORYSAT ([4]; 0.2500 kg/ha)
7.0: ECHORC [1, 6] | CYPIR (Cyperus iria; [8]) | MOOVA [3, 7] | MOOVA [3, 8]
4.0: MOOVA [3, 6]
9.0: ECHORC [1, 7] | ECHORC [1, 8]
5.0: ECHORC [1, 5] | CYPIR (Cyperus iria; [7])

CN(C(=O)c1nsc2ccc(-n3c(=O)cc(C(F)(F)F)n(C)c3=O)cc12)c1ccc(Cl)cc1 [Example 365, 1,2-Benzisothiazole-3-carboxanilide, 4'-chloro-5-[3,6-dihydro-3-methyl-2,6-dioxo-4-(trifluoromethyl)-1(2H)-pyrimidinyl]-N-methyl-]
4.0: herbicidal effect rating, ECHORC [1, 9] | herbicidal effect rating, CYPIR (Cyperus iria; [9]) | herbicidal effect rating, CYPSE [2, 9] | herbicidal effect rating, CYPSE [2, 10] | herbicidal effect rating, CYPSE [2, 11]
5.0: herbicidal effect rating, SAGPY (Sagittaria pygmaea, L.; [10]) | herbicidal effect rating, SAGPY (Sagittaria pygmaea, L.; [11]) | herbicidal effect rating, SAGPY (Sagittaria pygmaea, L.; [12]) | herbicidal effect rating ORYSAT ([4]; Rate 0.0620 kg/ha) | herbicidal effect rating ORYSAT ([4]; Rate 0.1250 kg/ha) | herbicidal effect rating ORYSAT ([4]; Rate 0.2500 kg/ha)
9.0: herbicidal effect rating, ECHORC [1, 11] | herbicidal effect rating, ECHORC [1, 12] | herbicidal effect rating, ECHORC [1, 13] | herbicidal effect rating, CYPIR (Cyperus iria; [12]) | herbicidal effect rating, CYPIR (Cyperus iria; [13]) | herbicidal effect rating, CYPSE [2, 12] | herbicidal effect rating, CYPSE [2, 13] | herbicidal effect rating, MOOVA [3, 9] | herbicidal effect rating, MOOVA [3, 10] | herbicidal effect rating, MOOVA [3, 11] | herbicidal effect rating, MOOVA [3, 12] | herbicidal effect rating, MOOVA [3, 13]
6.0: herbicidal effect rating, ECHORC [1, 10] | herbicidal effect rating, CYPIR (Cyperus iria; [10]) | herbicidal effect rating, CYPIR (Cyperus iria; [11]) | herbicidal effect rating, SAGPY (Sagittaria pygmaea, L.; [13]) | herbicidal effect rating ORYSAT ([4]; Rate 0.5000 kg/ha)
3.0: herbicidal effect rating, SAGPY (Sagittaria pygmaea, L.; [9]) | herbicidal effect rating ORYSAT ([4]; Rate 0.0320 kg/ha)

Cn1c(C(F)(F)F)cc(=O)n(-c2ccc3snc(C(C#N)=Cc4ccccn4)c3c2)c1=O [Example 592, 1,2-Benzisothiazole-3-acetonitrile, 5-[3,6-dihydro-3-methyl-2,6-dioxo-4-(trifluoromethyl)-1(2H)-pyrimidinyl]-alpha-(2-pyridylmethylene)-]
8.0: herbicidal effect rating, MOOVA [3, 9]
9.0: herbicidal effect rating, MOOVA [3, 10] | herbicidal effect rating, MOOVA [3, 11] | herbicidal effect rating, MOOVA [3, 12]
4.0: herbicidal effect rating, ECHORC [1, 11] | herbicidal effect rating, CYPIR (Cyperus iria; [11]) | herbicidal effect rating ORYSAT ([4]; Rate 0.1250 kg/ha) | herbicidal effect rating ORYSAT ([4]; Rate 0.2500 kg/ha)
0.0: herbicidal effect rating, ECHORC [1, 9] | herbicidal effect rating, CYPSE [2, 9] | herbicidal effect rating, CYPSE [2, 11] | herbicidal effect rating, SAGPY (Sagittaria pygmaea, L.; [9])
5.0: herbicidal effect rating, ECHORC [1, 12]
3.0: herbicidal effect rating, ECHORC [1, 10] | herbicidal effect rating, CYPIR (Cyperus iria; [10]) | herbicidal effect rating, SAGPY (Sagittaria pygmaea, L.; [10]) | herbicidal effect rating, SAGPY (Sagittaria pygmaea, L.; [11])
6.0: herbicidal effect rating, CYPIR (Cyperus iria; [12])
2.0: herbicidal effect rating, CYPIR (Cyperus iria; [9]) | herbicidal effect rating ORYSAT ([4]; Rate 0.0320 kg/ha) | herbicidal effect rating ORYSAT ([4]; Rate 0.0620 kg/ha)

CC(=O)c1nsc2ccc(-n3c(=O)cc(C(F)(F)F)n(C)c3=O)cc12 [Example 307, 2,4(1H,3H)-Pyrimidinedione, 3-(3-acetyl-1,2-benzisothiazol-5-yl)-1-methyl-6-(trifluoromethyl)-]
6.0: herbicidal effect rating, ECHORC [1, 14] | herbicidal effect rating, MOOVA [3, 14] | herbicidal effect rating ORYSAT ([4]; Rate 0.0620 kg/ha)
3.5: herbicidal effect rating, CYPSE [2, 15]
6.5: herbicidal effect rating, CYPIR (Cyperus iria; [14]) | herbicidal effect rating, CYPIR (Cyperus iria; [15]) | herbicidal effect rating, CYPIR (Cyperus iria; [16]) | herbicidal effect rating, SAGPY (Sagittaria pygmaea, L.; [16])
9.0: herbicidal effect rating, ECHORC [1, 17] | herbicidal effect rating, CYPSE [2, 17] | herbicidal effect rating, MOOVA [3, 16] | herbicidal effect rating, MOOVA [3, 17] | herbicidal effect rating, SAGPY (Sagittaria pygmaea, L.; [17]) | herbicidal effect rating ORYSAT ([4]; Rate 0.2500 kg/ha)
8.0: herbicidal effect rating, MOOVA [3, 15]
0.0: herbicidal effect rating, CYPSE [2, 14] | herbicidal effect rating, SAGPY (Sagittaria pygmaea, L.; [14])
7.5: herbicidal effect rating, CYPIR (Cyperus iria; [17])
8.5: herbicidal effect rating, ECHORC [1, 16] | herbicidal effect rating ORYSAT ([4]; Rate 0.1250 kg/ha)
1.0: herbicidal effect rating, SAGPY (Sagittaria pygmaea, L.; [15])
7.0: herbicidal effect rating, CYPSE [2, 16]
5.0: herbicidal effect rating, ECHORC [1, 15] | herbicidal effect rating ORYSAT ([4]; Rate 0.0320 kg/ha)

Cc1ccccc1CS(=O)(=O)NC(=O)c1nsc2ccc(-n3c(=O)cc(C(F)(F)F)n(C)c3=O)cc12 [Example 465, 1,2-Benzisothiazole-3-carboxamide, 5-[3,6-dihydro-3-methyl-2,6-dioxo-4-(trifluoromethyl)-1(2H)-pyrimidinyl]-N-[(o-methylbenzyl)sulfonyl]-]
0.0: CYPIR herbicidal rating (Cyperus iria; 0.0320 kg/ha, preemergence) | CYPIR herbicidal rating (Cyperus iria; 0.0620 kg/ha, preemergence) | CYPSE herbicidal rating ([2]; 0.0320 kg/ha, preemergence)
8.0: CYPIR herbicidal rating (Cyperus iria; 0.2500 kg/ha, preemergence)
5.0: SAGPY herbicidal rating (Sagittaria pygmaea, L.; 0.0620 kg/ha, preemergence) | SAGPY herbicidal rating (Sagittaria pygmaea, L.; 0.1250 kg/ha, preemergence) | ORYSAT herbicidal rating (rice tolerance) ([4]; 0.2500 kg/ha)
2.0: MOOVA herbicidal rating ([3]; 0.0320 kg/ha, preemergence) | SAGPY herbicidal rating (Sagittaria pygmaea, L.; 0.0320 kg/ha, preemergence) | ORYSAT herbicidal rating (rice tolerance) ([4]; 0.0320 kg/ha)
7.0: ECHORC herbicidal rating ([1]; 0.1250 kg/ha, preemergence) | CYPSE herbicidal rating ([2]; 0.1250 kg/ha, preemergence)
3.0: CYPIR herbicidal rating (Cyperus iria; 0.1250 kg/ha, preemergence) | MOOVA herbicidal rating ([3]; 0.0620 kg/ha, preemergence) | ORYSAT herbicidal rating (rice tolerance) ([4]; 0.0620 kg/ha)
6.0: ECHORC herbicidal rating ([1]; 0.0320 kg/ha, preemergence) | ECHORC herbicidal rating ([1]; 0.0620 kg/ha, preemergence) | MOOVA herbicidal rating ([3]; 0.1250 kg/ha, preemergence) | SAGPY herbicidal rating (Sagittaria pygmaea, L.; 0.2500 kg/ha, preemergence)
4.0: CYPSE herbicidal rating ([2]; 0.0620 kg/ha, preemergence) | ORYSAT herbicidal rating (rice tolerance) ([4]; 0.1250 kg/ha)
9.0: ECHORC herbicidal rating ([1]; 0.2500 kg/ha, preemergence) | CYPSE herbicidal rating ([2]; 0.2500 kg/ha, preemergence) | MOOVA herbicidal rating ([3]; 0.2500 kg/ha, preemergence)
